pIC50: −log10 of the molar value. Values after ≈ are worked out from the molar mass of the structure shown. Values joined by “and” are separate entries in the source; they are usually repeats but may differ in a detail not shown here. Equal values may be shown once. Read-outs that look alike come from different tables or passages of the source. One block for each molecule: values may come before it.
Tests used:
T. cruzi (Tulahuen TcVI) [1] = assay: Initial PK/PD efficacy: 10-day once daily oral dosing of T. cruzi infected mice; type: in vivo, Swiss mice; settings: 20 mg/kg oral once daily for up to 10 days
[2] = human liver microsomes
T. cruzi (Tulahuen TcVI) [3] = test system: T. cruzi (Tulahuen TcVI)
T. cruzi [4] = settings: twice daily treatment for 30 days, acute and chronic models; cited from earlier work
T. cruzi [5] = settings: cited from earlier work
in vitro = settings: rat, L6 IC50 (cytotoxicity), L6 cells
[6] = test system: T. cruzi (Tulahuen strain (Tc VI) transfected with β-galactosidase), amastigote form; assay: microbe, parasite or virus in culture; settings: Trypanosoma cruzi
T. cruzi (Tulahuen TcVI) [7] = settings: once daily oral 20 mg/kg for 20 days, cited from earlier work
physchem = settings: pH 2
[8] = 20 mg/kg oral once daily 20 days, day 8 = first compound dose
[9] = 20 mg/kg oral once daily 20 days, end after three cycles of immunosuppression
[10] = 20 mg/kg oral once daily 20 days, first day of nontreatment period
[11] = 20 mg/kg oral once daily 20 days, last day of nontreatment period
[12] = 20 mg/kg, PCR of blood, spleen, heart, skeletal muscle, colon
[13] = 5 mg/kg oral once daily 20 days
[14] = 10 mg/kg oral once daily 20 days
[15] = 100 mg/kg oral once daily 20 days
[16] = 20 mg/kg oral once daily 20 days

Structure (SMILES): O=C(C(c1ccc(Cl)cc1)c1cccnc1)N1CCN(c2ccc(C(F)(F)F)cc2)CC1 (racemic) [(rac)-7, 2-(4-Chlorophenyl)-1-{4-[4-(trifluoromethyl)phenyl]piperazin-1-yl}-2-(pyridin-3-yl)ethanone]
parasites cleared from blood during 10-day dosing? (T. cruzi (Tulahuen TcVI) [1]): yes | predicted human EH ([2]; Table 2): 0.50 | cure by PCR analyses of organs and blood (T. cruzi (Tulahuen TcVI) [3]; 20 mg/kg daily oral): no cures were obtained | mouse survival after infection, day 8 (T. cruzi (Tulahuen TcVI) [3]; [8]): 5 of 5 | mouse survival after infection, day 58 (T. cruzi (Tulahuen TcVI) [3]; [9]): 3 of 5 | mouse survival after infection, day 28 (T. cruzi (Tulahuen TcVI) [3]; [10]): 5 of 5 | mouse survival after infection, day 37 (T. cruzi (Tulahuen TcVI) [3]; [11]): 5 out of 5 and 5 of 5 | –ve PCR (T. cruzi (Tulahuen TcVI) [3]; [12]): 0 of 3

predicted human EH ([2]; Table 2): 0.61
Structure (SMILES): O=C([C@H](c1ccc(Cl)cc1)c1cccnc1)N1CCN(c2ccc(C(F)(F)F)cc2)CC1 [(R)-7, 2-(4-Chlorophenyl)-1-{4-[4-(trifluoromethyl)phenyl]piperazin-1-yl}-2-(pyridin-3-yl)ethanone]

Structure (SMILES): O=C([C@@H](c1ccc(Cl)cc1)c1cccnc1)N1CCN(c2ccc(C(F)(F)F)cc2)CC1 [(S)-7, 2-(4-Chlorophenyl)-1-{4-[4-(trifluoromethyl)phenyl]piperazin-1-yl}-2-(pyridin-3-yl)ethanone]
predicted human EH ([2]; Table 2): 0.53 | cure by PCR analyses of organs and blood (T. cruzi (Tulahuen TcVI) [3]; 5 mg/kg daily oral): cure had not been achieved | mouse survival after infection, day 8 (T. cruzi (Tulahuen TcVI) [3]; [13]): 4 of 4 | mouse survival after infection, day 28 (T. cruzi (Tulahuen TcVI) [3]; [13]): 4 of 4 | mouse survival after infection, day 37 (T. cruzi (Tulahuen TcVI) [3]; [13]): 4 of 4 | mouse survival after infection, day 58 (T. cruzi (Tulahuen TcVI) [3]; [13]): 3 out of 4 and 3 of 4 | –ve PCR (T. cruzi (Tulahuen TcVI) [3]; 5 mg/kg, PCR of blood and tissues): 0 of 3 | mouse survival after infection, day 8 (T. cruzi (Tulahuen TcVI) [3]; [14]): 4 of 4 | mouse survival after infection, day 28 (T. cruzi (Tulahuen TcVI) [3]; [14]): 4 of 4 | mouse survival after infection, day 37 (T. cruzi (Tulahuen TcVI) [3]; [14]): 4 of 4 | mouse survival after infection, day 58 (T. cruzi (Tulahuen TcVI) [3]; [14]): 3 of 4 | –ve PCR (T. cruzi (Tulahuen TcVI) [3]; 10 mg/kg, PCR of blood and tissues): 2 out of the 3 and 2 of 3

Structure (SMILES): O=C(N[C@@H](Cn1ccnc1)c1ccc(Cl)cc1Cl)c1ccc(-c2nnc(-c3ccccc3)o2)cc1 [VNI]
parasitological cure (T. cruzi [4]): parasitological cure

Structure (SMILES): O=C(Cn1ccnc1[N+](=O)[O-])NCc1ccccc1 [benznidazole, reference compound]
parasites in blood during the immunosuppression phase (T. cruzi (Tulahuen TcVI) [3]; 100 mg/kg oral): re-emergence of parasites in blood | mouse survival after infection, day 8 (T. cruzi (Tulahuen TcVI) [3]; [15]): 5 of 5 | mouse survival after infection, day 28 (T. cruzi (Tulahuen TcVI) [3]; [15]): 4 of 5 | mouse survival after infection, day 37 (T. cruzi (Tulahuen TcVI) [3]; [15]): 4 of 5 | mouse survival after infection, day 58 (T. cruzi (Tulahuen TcVI) [3]; [15]): 0 of 5 | adult patients experiencing serious adverse reactions (T. cruzi [5]): up to 30% | cure rates, acute stage of the infection (T. cruzi [5]; patients): up to 60% | pIC50 (in vitro): < 4.00 | pIC50 ([6]; read-out: Tc IC50): 5.82

Structure (SMILES): N#Cc1ccc(C(O)(c2ccc(C(F)(F)F)cc2)c2cccnc2)cc1 (centres unmarked) [compound 2, 4-(hydroxy(pyridin-3-yl)[4-(trifluoromethyl)phenyl]methyl)benzonitrile]
parasites cleared from blood during 10-day dosing? (T. cruzi (Tulahuen TcVI) [1]): yes | parasitological cure (T. cruzi (Tulahuen TcVI) [7]; three cycles of immunosuppression): had not achieved a parasitological cure | pIC50 [6]: 7.92

Structure (SMILES): N#Cc1ccc(C(c2cccnc2)N2CCC(NC(=O)c3c(F)cccc3F)CC2)cc1 (centres unmarked) [compound 4]
parasites cleared from blood during 10-day dosing? (T. cruzi (Tulahuen TcVI) [1]): no

Structure (SMILES): Fc1cc(Cl)ccc1C(NC1CCN(c2ccc(C(F)(F)F)cc2)CC1)c1cccnc1 (centres unmarked) [compound 5]
parasites cleared from blood during 10-day dosing? (T. cruzi (Tulahuen TcVI) [1]): yes

Structure (SMILES): FC(F)(F)c1ccc(N(c2cccnc2)C2CCN(c3ccc(C(F)(F)F)cn3)CC2)cc1 [compound 6, N-[4-(Trifluoromethyl)phenyl]-N-(1-[5-(trifluoromethyl)pyridin-2-yl]piperidin-4-yl)pyridin-3-amine]
parasites cleared from blood during 10-day dosing? (T. cruzi (Tulahuen TcVI) [1]): yes | predicted human EH ([2]; Table 1): 0.68 | mice microscopically parasite free following three cycles of immunosuppression (T. cruzi (Tulahuen TcVI) [3]; [16]): 3 out of 4 | mice parasite free at the end of dosing (T. cruzi (Tulahuen TcVI) [3]; [16]): 4 out of 5 | mouse survival after infection, day 8 (T. cruzi (Tulahuen TcVI) [3]; [8]): 5 of 5 | mouse survival after infection, day 58 (T. cruzi (Tulahuen TcVI) [3]; [9]): 3 of 5 | mouse survival after infection, day 28 (T. cruzi (Tulahuen TcVI) [3]; [10]): 4 of 5 | mouse survival after infection, day 37 (T. cruzi (Tulahuen TcVI) [3]; [11]): 4 of 5 | –ve PCR (T. cruzi (Tulahuen TcVI) [3]; [12]): 3 of 3 | parasitological cure (T. cruzi (Tulahuen TcVI) [3]; lower doses, 5 and 10 mg/kg, data not shown): parasitological cure was not observed

predicted human EH ([2]; Table 1): 0.91
Structure (SMILES): CC(C)(C)CC(=O)N1CCC(N(c2ccc(Cl)cc2)c2cccnc2)CC1 [compound 16]

Structure (SMILES): Cc1ccccc1CN1CCC(N(c2ccc(C(F)(F)F)cc2)c2cccnc2)CC1 [compound 22]
predicted human EH ([2]; Table 1): 0.87

predicted human EH ([2]; Table 1): 0.88
Structure (SMILES): N#Cc1ccccc1N1CCC(N(c2ccc(C(F)(F)F)cc2)c2cccnc2)CC1 [compound 25]

predicted human EH ([2]; Table 1): 0.65
Structure (SMILES): FC(F)(F)c1ccc(N(c2cccnc2)C2CCN(c3ccc(Cl)cc3)CC2)cc1 [compound 27]

predicted human EH ([2]; Table 1): 0.69
Structure (SMILES): N#Cc1ccc(N(c2cccnc2)C2CCN(c3ccc(C(F)(F)F)cc3)CC2)cc1 [compound 31]

predicted human EH ([2]; Table 1): 0.47
Structure (SMILES): CS(=O)(=O)c1ccc(N2CCC(N(c3ccc(C#N)cc3)c3cccnc3)CC2)cc1 [compound 33]

predicted human EH ([2]; Table 1): 0.63
Structure (SMILES): FC(F)(F)c1ccc(N(c2cncnc2)C2CCN(c3ccc(C(F)(F)F)cn3)CC2)cc1 [compound 34]

predicted human EH ([2]; Table 2): 0.70
Structure (SMILES): N#Cc1ccc(C(C(=O)N2CCN(c3ccc(C(F)(F)F)cc3)CC2)c2cccnc2)cc1 (centres unmarked) [compound 40]

predicted human EH ([2]; Table 2): 0.77
Structure (SMILES): O=C(C(c1ccc(Cl)cc1)c1cccnc1)N1CCN(c2ccc(C(F)(F)F)nc2)CC1 (centres unmarked) [compound 41]

predicted human EH ([2]; Table 2): 0.56
Structure (SMILES): N#Cc1ccc(C(C(=O)N2CCN(c3ccc(C(F)(F)F)nc3)CC2)c2cccnc2)cc1 (centres unmarked) [compound 42]

predicted human EH ([2]; Table 2): 0.70 | solubility (physchem): 25 µg/mL (≈ 54.2 µM)
Structure (SMILES): O=C(C(c1ccc(Cl)cc1)c1cccnc1)N1CCN(c2ccc(C(F)(F)F)cn2)CC1 (centres unmarked) [compound 43]

predicted human EH ([2]; Table 2): 0.56
Structure (SMILES): N#Cc1ccc(C(C(=O)N2CCN(c3ccc(C(F)(F)F)cn3)CC2)c2cccnc2)cc1 (centres unmarked) [compound 44]

predicted human EH ([2]; Table 2): 0.82
Structure (SMILES): CS(=O)(=O)c1ccc(N2CCN(C(=O)C(c3ccc(Cl)cc3)c3cccnc3)CC2)cc1 (centres unmarked) [compound 45]

predicted human EH ([2]; Table 2): 0.46
Structure (SMILES): CS(=O)(=O)c1ccc(N2CCN(C(=O)C(c3ccc(C#N)cc3)c3cccnc3)CC2)cc1 (centres unmarked) [compound 46]

Structure (SMILES): N#Cc1ccc(C(c2cccnc2)N2CCC(NC(=O)c3ccccc3)CC2)cc1 (centres unmarked) [compound 47]
parasites cleared from blood during 10-day dosing? (T. cruzi (Tulahuen TcVI) [1]): no

Structure (SMILES): N#Cc1cccc(N2CCC(NC(c3cccnc3)c3ccc(Cl)cc3F)CC2)c1 (centres unmarked) [compound 48]
parasites cleared from blood during 10-day dosing? (T. cruzi (Tulahuen TcVI) [1]): no

Structure (SMILES): Cc1cc(C(=O)NC2CCN(C(c3ccc(C#N)cc3)c3cccnc3)CC2)n(C)n1 (centres unmarked) [compound 50]
parasites cleared from blood during 10-day dosing? (T. cruzi (Tulahuen TcVI) [1]): no

Structure (SMILES): Cc1ncsc1C(=O)N1CCC(NC(c2ccc(C(F)(F)F)cc2)c2cccnc2)CC1 (centres unmarked) [compound 51]
parasites cleared from blood during 10-day dosing? (T. cruzi (Tulahuen TcVI) [1]): no

Structure (SMILES): N#Cc1ccc(C(O)(c2ccc(C(F)(F)F)cc2)c2cccnc2)c(F)c1 (centres unmarked) [compound 52]
parasites cleared from blood during 10-day dosing? (T. cruzi (Tulahuen TcVI) [1]): yes | pIC50 [6]: 8.70

Structure (SMILES): CC[C@@H]([C@H](C)O)n1ncn(-c2ccc(N3CCN(c4ccc(OC[C@@H]5CO[C@@](Cn6cncn6)(c6ccc(F)cc6F)C5)cc4)CC3)cc2)c1=O [posaconazole, reference compound]
parasites cleared from blood during 10-day dosing? (T. cruzi (Tulahuen TcVI) [1]): yes | mice cured (T. cruzi (Tulahuen TcVI) [7]; subchronic mouse model): ~60% | pIC50 (in vitro): < 4.00 | pIC50 ([6]; read-out: Tc IC50): 9.15

— article PMC3884847 (Journal of Medicinal Chemistry, 2013)
